What was measured:
Type in all cases: in vivo
[1] = tested on: blackgrass (Alopecurus myosuroides); assay: Test A postemergence application, visual injury rating; settings: 0 to 100 scale, 0 no effect, 100 complete control
Procedure, shortened: (§1)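 Seeds sown in a loam soil–sand blend received a directed preemergence soil spray of test chemical in a non-phytotoxic solvent mixture with surfactant. Postemergence plants were sprayed at 2 to 10 cm, one- to two-leaf stage. After approximately 10 d in greenhouse, injury was visually rated 0 (no effect) to 100 (complete control) against untreated controls.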

[2] = tested on: foxtail, giant (giant foxtail, Setaria faberii); assay: as above; settings: 0 to 100 scale, 0 no effect, 100 complete control
Procedure, shortened: as §1

[3] = tested on: ryegrass, It. (Italian ryegrass, Lolium multiflorum); assay: as above; settings: 0 to 100 scale, 0 no effect, 100 complete control
Procedure, shortened: as §1

kochia (Kochia scoparia) [4] = assay: as above; settings: 0 to 100 scale, 0 no effect, 100 complete control
Procedure, shortened: as §1

[5] = tested on: galium (catchweed bedstraw, Galium aparine); assay: as above; settings: 0 to 100 scale, 0 no effect, 100 complete control
Procedure, shortened: as §1

[6] = tested on: barnyardgrass (Echinochloa crus-galli); assay: as above; settings: 0 to 100 scale, 0 no effect, 100 complete control
Procedure, shortened: as §1

corn (Zea mays) = assay: as above; settings: 0 to 100 scale, 0 no effect, 100 complete control
Procedure, shortened: as §1

[7] = tested on: pigweed (Amaranthus retroflexus); assay: as above; settings: 0 to 100 scale, 0 no effect, 100 complete control
Procedure, shortened: as §1

[8] = tested on: wheat (Triticum aestivum); assay: as above; settings: 0 to 100 scale, 0 no effect, 100 complete control
Procedure, shortened: as §1

[9] = tested on: ragweed (common ragweed, Ambrosia elatior); assay: as above; settings: 0 to 100 scale, 0 no effect, 100 complete control
Procedure, shortened: as §1

rice (Oryza sativa) = assay: Test B flooded paddy test, visual rating; settings: Flood, 250 g ai/ha, applied to paddy water, rated after 13 to 15 d
Procedure, shortened: (§2)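 Plants at the 2-leaf stage were flooded to 3 cm above soil, and test compounds were applied directly into the paddy water, which was held at that depth throughout. After 13 to 15 d in a greenhouse, injury was rated visually against untreated controls on a 0–100 scale (0 no effect, 100 complete control).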

[10] = tested on: sedge, umbrella (small-flower umbrella sedge, Cyperus difformis); assay: Test B flooded paddy test, visual rating; settings: Flood, 250 g ai/ha, applied to paddy water, rated after 13 to 15 d
Procedure, shortened: as §2

[11] = tested on: barnyardgrass (Echinochloa crus-galli); assay: Test B flooded paddy test, visual rating; settings: Flood, 250 g ai/ha, applied to paddy water, rated after 13 to 15 d
Procedure, shortened: as §2

[12] = tested on: ducksalad (Heteranthera limosa); assay: Test B flooded paddy test, visual rating; settings: Flood, 250 g ai/ha, applied to paddy water, rated after 13 to 15 d
Procedure, shortened: as §2

[13] = tested on: foxtail, giant (giant foxtail, Setaria faberii); assay: Test A preemergence, directed soil spray, visual injury rating; settings: 0 is no effect, 100 is complete control
Procedure, shortened: as §1

[14] = tested on: ryegrass, It. (Italian ryegrass, Lolium multiflorum); assay: as above; settings: 0 is no effect, 100 is complete control
Procedure, shortened: as §1

kochia (Kochia scoparia) [15] = assay: as above; settings: 0 is no effect, 100 is complete control
Procedure, shortened: as §1

[16] = tested on: barnyardgrass (Echinochloa crus-galli); assay: as above; settings: 0 is no effect, 100 is complete control
Procedure, shortened: as §1

[17] = tested on: pigweed (Amaranthus retroflexus); assay: as above; settings: 0 is no effect, 100 is complete control
Procedure, shortened: as §1

[18] = tested on: ragweed (common ragweed, Ambrosia elatior); assay: as above; settings: 0 is no effect, 100 is complete control
Procedure, shortened: as §1

| SMILES | Blackgrass plant response rating ([1]; 125 g ai/ha) | Foxtail, Giant plant response rating ([2]; 125 g ai/ha) | Ryegrass, It. plant response rating ([3]; 125 g ai/ha) | Kochia plant response rating (kochia (Kochia scoparia) [4]; 125 g ai/ha) | Galium plant response rating ([5]; 125 g ai/ha) | Barnyardgrass plant response rating ([6]; 125 g ai/ha) | Corn plant response rating (corn (Zea mays); 125 g ai/ha) | Pigweed plant response rating ([7]; 125 g ai/ha) | Wheat plant response rating ([8]; 125 g ai/ha) | Ragweed plant response rating ([9]; 125 g ai/ha) | Rice plant response rating (0 to 100 scale, 0 is no effect, 100 is complete control) (rice (Oryza sativa)) | Sedge, Umbrella plant response rating (0 to 100 scale, 0 is no effect, 100 is complete control) [10] | Barnyardgrass plant response rating (0 to 100 scale, 0 is no effect, 100 is complete control) [11] | Ducksalad plant response rating (0 to 100 scale, 0 is no effect, 100 is complete control) [12] | Plant response rating (0 to 100 scale), Foxtail, Giant ([13]; 125 g ai/ha) | Plant response rating (0 to 100 scale), Ryegrass, It. ([14]; 125 g ai/ha) | Plant response rating (0 to 100 scale), Kochia (kochia (Kochia scoparia) [15]; 125 g ai/ha) | Plant response rating (0 to 100 scale), Barnyardgrass ([16]; 125 g ai/ha) | Plant response rating (0 to 100 scale), Pigweed ([17]; 125 g ai/ha) | Plant response rating (0 to 100 scale), Ragweed ([18]; 125 g ai/ha) | also measured |
| --- | --- | --- | --- | --- | --- | --- | --- | --- | --- | --- | --- | --- | --- | --- | --- | --- | --- | --- | --- | --- | --- |
| CCOC(=O)Oc1c(C)nn(C)c(=O)c1-c1c(CC)sc2ncccc12 [Compound 19] | 0 | 0 | 0 | 0 | 0 | 0 | 0 | 10 | 0 | 0 | 0 | 0 | 0 | 0 | 0 | 0 | 0 | 0 | 0 | 0 | Blackgrass plant response rating ([1]; 500 g ai/ha): 0; Foxtail, Giant plant response rating ([2]; 500 g ai/ha): 0; Ryegrass, It. plant response rating ([3]; 500 g ai/ha): 0; Kochia plant response rating (kochia (Kochia scoparia) [4]; 500 g ai/ha): 0; Galium plant response rating ([5]; 500 g ai/ha): 20; Barnyardgrass plant response rating ([6]; 500 g ai/ha): 0; Corn plant response rating (corn (Zea mays); 500 g ai/ha): 0; Pigweed plant response rating ([7]; 500 g ai/ha): 30; Wheat plant response rating ([8]; 500 g ai/ha): 0; Ragweed plant response rating ([9]; 500 g ai/ha): 0; Plant response rating (0 to 100 scale), Foxtail, Giant ([13]; 500 g ai/ha): 0; Plant response rating (0 to 100 scale), Ryegrass, It. ([14]; 500 g ai/ha): 0; Plant response rating (0 to 100 scale), Kochia (kochia (Kochia scoparia) [15]; 500 g ai/ha): 0; Plant response rating (0 to 100 scale), Barnyardgrass ([16]; 500 g ai/ha): 0; Plant response rating (0 to 100 scale), Pigweed ([17]; 500 g ai/ha): 20; Plant response rating (0 to 100 scale), Ragweed ([18]; 500 g ai/ha): 0 |
| CCc1sc2ncccc2c1-c1c(OC(=O)OC(C)C)c(C)nn(C)c1=O [Compound 20] | 0 | 0 | 0 | 0 | 10 | 0 | 0 | 20 | 0 | 0 | 0 | 0 | 0 | 0 | 0 | 0 | 0 | 0 | 0 | 0 | Blackgrass plant response rating ([1]; 500 g ai/ha): 0; Foxtail, Giant plant response rating ([2]; 500 g ai/ha): 0; Ryegrass, It. plant response rating ([3]; 500 g ai/ha): 0; Kochia plant response rating (kochia (Kochia scoparia) [4]; 500 g ai/ha): 0; Galium plant response rating ([5]; 500 g ai/ha): 40; Barnyardgrass plant response rating ([6]; 500 g ai/ha): 0; Corn plant response rating (corn (Zea mays); 500 g ai/ha): 0; Pigweed plant response rating ([7]; 500 g ai/ha): 50; Wheat plant response rating ([8]; 500 g ai/ha): 0; Ragweed plant response rating ([9]; 500 g ai/ha): 0; Plant response rating (0 to 100 scale), Foxtail, Giant ([13]; 500 g ai/ha): 0; Plant response rating (0 to 100 scale), Ryegrass, It. ([14]; 500 g ai/ha): 0; Plant response rating (0 to 100 scale), Kochia (kochia (Kochia scoparia) [15]; 500 g ai/ha): 0; Plant response rating (0 to 100 scale), Barnyardgrass ([16]; 500 g ai/ha): 0; Plant response rating (0 to 100 scale), Pigweed ([17]; 500 g ai/ha): 40; Plant response rating (0 to 100 scale), Ragweed ([18]; 500 g ai/ha): 0 |
| CCc1sc2ncccc2c1-c1c(OC(=O)C2CC2)c(C)nn(C)c1=O [Compound 21] | 0 | 0 | 0 | 0 | 10 | 0 | 0 | 10 | 0 | 0 | 0 | 0 | 0 | 0 | 0 | 0 | 0 | 0 | 0 | 0 | Blackgrass plant response rating ([1]; 500 g ai/ha): 0; Foxtail, Giant plant response rating ([2]; 500 g ai/ha): 0; Ryegrass, It. plant response rating ([3]; 500 g ai/ha): 0; Kochia plant response rating (kochia (Kochia scoparia) [4]; 500 g ai/ha): 0; Galium plant response rating ([5]; 500 g ai/ha): 20; Barnyardgrass plant response rating ([6]; 500 g ai/ha): 0; Corn plant response rating (corn (Zea mays); 500 g ai/ha): 0; Pigweed plant response rating ([7]; 500 g ai/ha): 30; Wheat plant response rating ([8]; 500 g ai/ha): 0; Ragweed plant response rating ([9]; 500 g ai/ha): 0; Plant response rating (0 to 100 scale), Foxtail, Giant ([13]; 500 g ai/ha): 0; Plant response rating (0 to 100 scale), Ryegrass, It. ([14]; 500 g ai/ha): 0; Plant response rating (0 to 100 scale), Kochia (kochia (Kochia scoparia) [15]; 500 g ai/ha): 0; Plant response rating (0 to 100 scale), Barnyardgrass ([16]; 500 g ai/ha): 0; Plant response rating (0 to 100 scale), Pigweed ([17]; 500 g ai/ha): 0; Plant response rating (0 to 100 scale), Ragweed ([18]; 500 g ai/ha): 0 |
| CCC(=O)Oc1c(C)nn(C)c(=O)c1-c1c(C)ccc2cc(C)oc12 [Compound 22] | 80 | 70 | 80 | 90 | 90 | 10 | 0 | 90 | 0 | 90 | 0 | 0 | 0 | 0 | 50 | 80 | 90 | 10 | 100 | 80 | Blackgrass plant response rating ([1]; 31 g ai/ha): 30; Foxtail, Giant plant response rating ([2]; 31 g ai/ha): 30; Ryegrass, It. plant response rating ([3]; 31 g ai/ha): 70; Kochia plant response rating (kochia (Kochia scoparia) [4]; 31 g ai/ha): 70; Galium plant response rating ([5]; 31 g ai/ha): 70; Barnyardgrass plant response rating ([6]; 31 g ai/ha): 10; Corn plant response rating (corn (Zea mays); 31 g ai/ha): 0; Pigweed plant response rating ([7]; 31 g ai/ha): 60; Wheat plant response rating ([8]; 31 g ai/ha): 0; Ragweed plant response rating ([9]; 31 g ai/ha): 70; Plant response rating (0 to 100 scale), Foxtail, Giant ([13]; 31 g ai/ha): 0; Plant response rating (0 to 100 scale), Ryegrass, It. ([14]; 31 g ai/ha): 30; Plant response rating (0 to 100 scale), Kochia (kochia (Kochia scoparia) [15]; 31 g ai/ha): 30; Plant response rating (0 to 100 scale), Barnyardgrass ([16]; 31 g ai/ha): 0; Plant response rating (0 to 100 scale), Pigweed ([17]; 31 g ai/ha): 100; Plant response rating (0 to 100 scale), Ragweed ([18]; 31 g ai/ha): 20 |

— patent publication US10750743B2, “Pyridazinone herbicides” (E.I. DU PONT DE NEMOURS AND COMPANY, priority 2015, dated 2020)
